Results taken from PubChem BioAssay AID256 (DTP/NCI, 2004).
Several values for one entry are separate records, joined by “and”; a condition that tells them apart may be missing. Identical values can stand only once. Toxic doses and inconclusive results are not listed.

Tested on: CD2F1 mice, L1210 leukemia ip, survival T/C
Experiment: NCI In Vivo Anticancer Drug Screen. Data for tumor model L1210 Leukemia (intraperitoneal) in CD2F1 (CDF1) mice
Details: endpoint: mean survival time, higher = longer survival
Method in brief: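 Read-out first: treated-group measurement over vehicle-control measurement, expressed as a ratio. Animals bore a transplanted tumor line and were dosed with compound or vehicle.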

[1] = dose: 400.0 mg/kg/injection, schedule: Q01DX009 (ip), vehicle: saline with Tween-80
[2] = dose: 100.0 mg/kg/injection, schedule: Q01DX009 (ip), vehicle: saline with Tween-80
[3] = dose: 200.0 mg/kg/injection, schedule: Q01DX009 (ip), vehicle: saline with Tween-80
[4] = dose: 100.0 mg/kg/injection, schedule: Q01DX009 (ip), vehicle: other
[5] = dose: 200.0 mg/kg/injection, schedule: Q01DX009 (ip), vehicle: other
[6] = dose: 400.0 mg/kg/injection, schedule: Q01DX009 (ip), vehicle: other
[7] = dose: 100.0 mg/kg/injection, schedule: Q04DX003 (ip), vehicle: saline with Tween-80
[8] = dose: 200.0 mg/kg/injection, schedule: Q04DX003 (ip), vehicle: saline with Tween-80
[9] = dose: 400.0 mg/kg/injection, schedule: Q04DX003 (ip), vehicle: saline with Tween-80
[10] = dose: 100.0 mg/kg/injection, schedule: Q01DX001 (ip), vehicle: saline with Tween-80
[11] = dose: 100.0 mg/kg/injection, schedule: Q04DX002 (ip), vehicle: saline with Tween-80
[12] = dose: 200.0 mg/kg/injection, schedule: Q01DX001 (ip), vehicle: saline with Tween-80
[13] = dose: 200.0 mg/kg/injection, schedule: Q04DX002 (ip), vehicle: saline with Tween-80
[14] = dose: 400.0 mg/kg/injection, schedule: Q01DX001 (ip), vehicle: saline with Tween-80
[15] = dose: 100.0 mg/kg/injection, schedule: Q01DX001 (ip), vehicle: saline
[16] = dose: 200.0 mg/kg/injection, schedule: Q01DX001 (ip), vehicle: saline
[17] = dose: 400.0 mg/kg/injection, schedule: Q01DX001 (ip), vehicle: saline

O=NN(CCCl)C(=O)Nc1ccc2[nH]c3ccccc3c2c1
T/C (dose: 25.0 mg/kg/injection, schedule: Q01DX009 (ip), vehicle: Klucel (hydroxypropylcellulose) (HPC)): 101 % of control | T/C (dose: 50.0 mg/kg/injection, schedule: Q01DX009 (ip), vehicle: Klucel (hydroxypropylcellulose) (HPC)): 116 % of control | T/C (dose: 100.0 mg/kg/injection, schedule: Q01DX009 (ip), vehicle: Klucel (hydroxypropylcellulose) (HPC)): 118 % of control | T/C (dose: 177.0 mg/kg/injection, schedule: Q01DX009 (ip), vehicle: saline with Tween-80): 91 % of control | T/C (dose: 200.0 mg/kg/injection, schedule: Q01DX009 (ip), vehicle: Klucel (hydroxypropylcellulose) (HPC)): 123 % of control | T/C [1]: 104 % of control

CC(=O)Nc1ccccc1C#N
T/C [2]: 98 % of control | T/C [3]: 98 % of control | T/C [1]: 113 % of control

COc1ccc(C2=NCCc3cc(OC)c(OC)cc32)cc1OC
T/C (dose: 12.5 mg/kg/injection, schedule: Q01DX009 (ip), vehicle: other): 90 % of control | T/C (dose: 25.0 mg/kg/injection, schedule: Q01DX009 (ip), vehicle: other): 92 % of control

CN(C)C=NC1=NN(C)c2ncnc3c2c1cn3C1OC(CO)C(O)C1O (stereo unspecified)
T/C (dose: 12.5 mg/kg/injection, schedule: Q01DX009 (ip), vehicle: water): 101 % of control | T/C (dose: 25.0 mg/kg/injection, schedule: Q01DX009 (ip), vehicle: water): 95 % of control | T/C (dose: 50.0 mg/kg/injection, schedule: Q01DX009 (ip), vehicle: water): 95 % of control | T/C [4]: 108 % of control | T/C (dose: 100.0 mg/kg/injection, schedule: Q01DX009 (ip), vehicle: water): 103 % of control | T/C [5]: 104 % of control | T/C (dose: 200.0 mg/kg/injection, schedule: Q01DX009 (ip), vehicle: water): 110 % of control | T/C [6]: 115 % of control

COC(=O)c1ncccc1C(=O)O
T/C [7]: 94 % of control | T/C [8]: 86 % of control | T/C [9]: 86 % of control

CC1(C)OCC(CO)(Nc2nc(N3CC3)nc(N3CC3)n2)CO1
T/C (dose: 0.31 mg/kg/injection, schedule: Q01DX009 (ip), vehicle: saline): 111 % of control | T/C (dose: 0.62 mg/kg/injection, schedule: Q01DX009 (ip), vehicle: saline): 117 % of control and 112 % of control | T/C (dose: 1.25 mg/kg/injection, schedule: Q01DX009 (ip), vehicle: saline): 194 % of control | T/C (dose: 2.5 mg/kg/injection, schedule: Q01DX009 (ip), vehicle: saline): 186 % of control and 221 % of control and 104 % of control

CCC(Cl)[N+](=O)[O-] (stereo unspecified)
T/C (dose: 50.0 mg/kg/injection, schedule: Q04DX003 (ip), vehicle: Klucel (hydroxypropylcellulose) (HPC)): 97 % of control | T/C (dose: 100.0 mg/kg/injection, schedule: Q04DX003 (ip), vehicle: Klucel (hydroxypropylcellulose) (HPC)): 107 % of control | T/C (dose: 200.0 mg/kg/injection, schedule: Q04DX003 (ip), vehicle: Klucel (hydroxypropylcellulose) (HPC)): 101 % of control

CCN1C(=O)/C(=C\C=C2/SCCN2C)OC1=S
T/C (dose: 75.0 mg/kg/injection, schedule: Q01DX001 (ip), vehicle: other): 92 % of control | T/C (dose: 150.0 mg/kg/injection, schedule: Q01DX001 (ip), vehicle: other): 100 % of control | T/C (dose: 300.0 mg/kg/injection, schedule: Q01DX001 (ip), vehicle: other): 94 % of control

NC(CSC(c1ccccc1)(c1ccccc1)c1ccc(F)cc1)C(=O)O (stereo unspecified)
T/C (dose: 25.0 mg/kg/injection, schedule: Q01DX009 (ip), vehicle: saline): 181 % of control | T/C (dose: 50.0 mg/kg/injection, schedule: Q01DX009 (ip), vehicle: saline): 192 % of control

CCCCCCCCCC(=O)NC(=S)Nc1ccc(Cl)cc1
T/C (dose: 25.0 mg/kg/injection, schedule: Q01DX009 (ip), vehicle: saline with Tween-80): 95 % of control and 96 % of control | T/C (dose: 50.0 mg/kg/injection, schedule: Q01DX009 (ip), vehicle: saline with Tween-80): 98 % of control and 101 % of control | T/C [10]: 94 % of control and 95 % of control | T/C [11]: 100 % of control and 104 % of control | T/C [12]: 92 % of control and 103 % of control | T/C [13]: 92 % of control and 93 % of control | T/C [14]: 100 % of control and 103 % of control | T/C (dose: 400.0 mg/kg/injection, schedule: Q04DX002 (ip), vehicle: saline with Tween-80): 88 % of control and 90 % of control

C=CCNC(=O)/C=C/C(=O)O
T/C (dose: 100.0 mg/kg/injection, schedule: Q04DX003 (ip), vehicle: saline): 97 % of control | T/C (dose: 200.0 mg/kg/injection, schedule: Q04DX003 (ip), vehicle: saline): 97 % of control | T/C (dose: 400.0 mg/kg/injection, schedule: Q04DX003 (ip), vehicle: saline): 103 % of control

O=C(O)CC[P+](c1ccccc1)(c1ccccc1)c1ccccc1
T/C [2]: 95 % of control | T/C [3]: 92 % of control | T/C [1]: 89 % of control

CCOC(=O)CCC[P+](c1ccccc1)(c1ccccc1)c1ccccc1
T/C [7]: 100 % of control | T/C [8]: 100 % of control | T/C [9]: 98 % of control

NC(CC(=O)c1cccc2oc3cc(=O)c4[nH]c(C(=O)O)cc(=O)c4c-3nc12)C(=O)O (stereo unspecified)
T/C (dose: 50.0 mg/kg/injection, schedule: Q01DX001 (ip), vehicle: carboxymethylcellulose (CMC)): 98 % of control | T/C (dose: 100.0 mg/kg/injection, schedule: Q01DX001 (ip), vehicle: carboxymethylcellulose (CMC)): 95 % of control | T/C (dose: 200.0 mg/kg/injection, schedule: Q01DX001 (ip), vehicle: carboxymethylcellulose (CMC)): 95 % of control | T/C (dose: 400.0 mg/kg/injection, schedule: Q01DX001 (ip), vehicle: carboxymethylcellulose (CMC)): 101 % of control

Cc1nc(-c2cccc(Cl)c2)oc1-c1ccccc1
T/C [11]: 115 % of control | T/C [13]: 121 % of control

CC(=O)OCc1ccc(Cl)cc1
T/C [7]: 94 % of control | T/C [8]: 96 % of control | T/C [9]: 96 % of control

CC(C)[N-]C(C)C.CC(C)[N-]C(C)C.[Cl][Pt+2][Cl]
T/C (dose: 10.0 mg/kg/injection, schedule: Q04DX003 (ip), vehicle: saline with Tween-80): 102 % of control | T/C (dose: 20.0 mg/kg/injection, schedule: Q04DX003 (ip), vehicle: saline with Tween-80): 97 % of control | T/C (dose: 40.0 mg/kg/injection, schedule: Q04DX003 (ip), vehicle: saline with Tween-80): 105 % of control | T/C (dose: 80.0 mg/kg/injection, schedule: Q04DX003 (ip), vehicle: saline with Tween-80): 97 % of control | T/C (dose: 160.0 mg/kg/injection, schedule: Q04DX003 (ip), vehicle: saline with Tween-80): 97 % of control

COc1ccc(/C=C(/c2ccccc2)[Si](C)(C)C)cc1
T/C (dose: 100.0 mg/kg/injection, schedule: Q04DX003 (ip), vehicle: other): 91 % of control | T/C (dose: 200.0 mg/kg/injection, schedule: Q04DX003 (ip), vehicle: other): 96 % of control | T/C (dose: 400.0 mg/kg/injection, schedule: Q04DX003 (ip), vehicle: other): 94 % of control

CC(NC1=C(Cl)C(=O)c2ccccc2C1=O)c1ccccc1 (stereo unspecified)
T/C (dose: 25.0 mg/kg/injection, schedule: Q04DX003 (ip), vehicle: saline with Tween-80): 102 % of control | T/C (dose: 50.0 mg/kg/injection, schedule: Q04DX003 (ip), vehicle: saline with Tween-80): 96 % of control | T/C [7]: 95 % of control

Nc1ccc(C(O)(C(F)(F)F)C(F)(F)F)c(C(=O)O)c1
T/C [4]: 106 % of control | T/C [5]: 106 % of control | T/C [6]: 102 % of control

O=C(Nc1cccc2ccccc12)N(c1ccccc1)c1ccccc1
T/C [15]: 105 % of control | T/C [16]: 96 % of control | T/C [17]: 94 % of control

Nc1ncnc2c1ncn2C1OC(CO)C(NC(=O)C(N)Cc2ccccc2)C1O (stereo unspecified)
T/C [15]: 94 % of control | T/C [16]: 92 % of control | T/C [17]: 91 % of control

FCCc1ccc(F)cc1
T/C [10]: 101 % of control | T/C (dose: 100.0 mg/kg/injection, schedule: Q04DX003 (ip), vehicle: saline sonified): 93 % of control | T/C [12]: 100 % of control | T/C (dose: 200.0 mg/kg/injection, schedule: Q04DX003 (ip), vehicle: saline sonified): 100 % of control | T/C [14]: 101 % of control | T/C (dose: 400.0 mg/kg/injection, schedule: Q04DX003 (ip), vehicle: saline sonified): 98 % of control
